Tests used:
Experiment in all cases: scanMAX Kinase panel (DiscoverX)
Assay type in all cases: binding
GAK = biological target: T1, GAK (Homo sapiens, UniProt O14976); details: read-out: % Cont @ 1 uM
T1 construct: purchased DiscoverX scanMAX Kinase panel
Procedure: (§1) Among the example compounds of the present invention, the enzyme (kinase) selectivity of the selected compounds of Examples 1 and 4 was measured by requesting DiscoverX. At this time, the experiment was performed using a panel for scanMAX™ Kinase. The concentration of the drug treated to the enzyme was 1 μM in DMSO, and the percentage control (% control) was determined by the method shown in Equation 1 below. (Example Compound−Positive Control)/(Negative Control−Positive control)×100 [Equation 1]

KIT(V559D) = biological target: T2, KIT(V559D) (Homo sapiens, UniProt P10721, V559D); details: read-out: % Cont @ 1 uM
T2 construct: purchased DiscoverX scanMAX Kinase panel
Procedure: as §1

TAOK1 = biological target: T3, TAOK1 (Homo sapiens, UniProt Q7L7X3); details: read-out: % Cont @ 1 uM
T3 construct: purchased DiscoverX scanMAX Kinase panel
T3 sequence (Q7L7X3 whole entry): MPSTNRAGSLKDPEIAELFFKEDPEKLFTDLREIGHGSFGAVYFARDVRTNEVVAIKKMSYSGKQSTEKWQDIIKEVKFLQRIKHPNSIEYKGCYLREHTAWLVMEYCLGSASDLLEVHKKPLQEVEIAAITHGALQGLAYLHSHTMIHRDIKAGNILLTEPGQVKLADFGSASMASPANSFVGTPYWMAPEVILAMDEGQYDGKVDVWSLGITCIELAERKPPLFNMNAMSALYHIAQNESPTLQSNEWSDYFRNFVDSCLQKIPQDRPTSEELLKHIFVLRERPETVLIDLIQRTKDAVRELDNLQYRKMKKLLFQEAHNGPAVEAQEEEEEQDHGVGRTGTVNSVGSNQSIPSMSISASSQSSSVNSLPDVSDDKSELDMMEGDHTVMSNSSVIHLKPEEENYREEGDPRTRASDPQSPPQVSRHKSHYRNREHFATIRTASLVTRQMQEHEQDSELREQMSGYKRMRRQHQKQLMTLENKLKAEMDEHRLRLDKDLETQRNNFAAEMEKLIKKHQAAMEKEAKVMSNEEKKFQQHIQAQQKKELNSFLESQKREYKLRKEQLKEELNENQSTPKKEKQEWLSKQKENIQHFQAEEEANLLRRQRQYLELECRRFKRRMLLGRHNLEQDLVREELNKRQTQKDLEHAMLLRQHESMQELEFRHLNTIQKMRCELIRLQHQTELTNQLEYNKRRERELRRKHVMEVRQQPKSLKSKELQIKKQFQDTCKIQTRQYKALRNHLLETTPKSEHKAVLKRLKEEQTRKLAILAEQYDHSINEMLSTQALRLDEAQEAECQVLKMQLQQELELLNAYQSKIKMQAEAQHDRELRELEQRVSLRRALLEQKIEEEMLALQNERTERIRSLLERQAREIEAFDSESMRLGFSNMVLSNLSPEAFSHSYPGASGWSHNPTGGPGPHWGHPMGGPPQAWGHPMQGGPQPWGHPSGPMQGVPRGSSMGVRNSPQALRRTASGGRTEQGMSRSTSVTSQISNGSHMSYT
Procedure: as §1

TNNI3K = biological target: T4, TNNI3K (Homo sapiens, UniProt Q59H18); details: read-out: % Cont @ 1 uM
T4 construct: purchased DiscoverX scanMAX Kinase panel
T4 sequence (Q59H18 whole entry): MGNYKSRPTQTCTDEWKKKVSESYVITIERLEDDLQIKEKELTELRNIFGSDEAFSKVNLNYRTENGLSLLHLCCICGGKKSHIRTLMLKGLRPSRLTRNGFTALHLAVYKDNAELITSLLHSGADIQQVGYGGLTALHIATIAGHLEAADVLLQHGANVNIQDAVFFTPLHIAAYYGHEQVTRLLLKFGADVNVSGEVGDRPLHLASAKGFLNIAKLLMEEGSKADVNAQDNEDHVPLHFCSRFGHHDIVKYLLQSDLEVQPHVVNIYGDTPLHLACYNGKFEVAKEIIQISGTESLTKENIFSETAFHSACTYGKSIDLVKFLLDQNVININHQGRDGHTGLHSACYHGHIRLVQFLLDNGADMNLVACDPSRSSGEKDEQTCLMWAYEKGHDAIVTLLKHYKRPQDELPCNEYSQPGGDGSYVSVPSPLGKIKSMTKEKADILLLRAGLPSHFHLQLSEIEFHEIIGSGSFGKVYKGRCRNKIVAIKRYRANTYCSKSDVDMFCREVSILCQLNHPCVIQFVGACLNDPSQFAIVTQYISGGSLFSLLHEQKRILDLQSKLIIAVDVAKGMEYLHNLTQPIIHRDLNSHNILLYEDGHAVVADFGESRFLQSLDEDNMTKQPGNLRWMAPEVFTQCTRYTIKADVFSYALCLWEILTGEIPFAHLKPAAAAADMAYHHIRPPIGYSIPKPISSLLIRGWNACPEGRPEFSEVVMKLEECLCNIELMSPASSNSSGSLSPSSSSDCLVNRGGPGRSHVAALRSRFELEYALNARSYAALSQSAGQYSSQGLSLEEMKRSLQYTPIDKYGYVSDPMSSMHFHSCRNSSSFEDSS
Procedure: as §1

IKK-beta = biological target: T5, IKK-beta (Homo sapiens, UniProt O14920); details: read-out: % Cont @ 1 uM
T5 construct: purchased DiscoverX scanMAX Kinase panel
Procedure: as §1

NEK4 = biological target: T6, NEK4 (Homo sapiens, UniProt P51957); details: read-out: % Cont @ 1 uM
T6 construct: purchased DiscoverX scanMAX Kinase panel
Procedure: as §1

KIT(V559D, T670I) = biological target: T7, KIT(V559D, T670I) (Homo sapiens, UniProt P10721, T670I/V559D); details: read-out: % Cont @ 1 uM
T7 construct: purchased DiscoverX scanMAX Kinase panel
Procedure: as §1

PDGFRB = biological target: T8, PDGFRB (Homo sapiens, UniProt P09619); details: read-out: % Cont @ 1 uM
T8 construct: purchased DiscoverX scanMAX Kinase panel
Procedure: as §1

[1] = biological target: T9, ABL1(F317I)-nonphosphorylated (Homo sapiens, UniProt P00519, F317I); details: read-out: % Cont @ 1 uM
T9 construct: purchased DiscoverX
Procedure: as §1

ZAK = biological target: T10, ZAK (Homo sapiens, UniProt Q9NYL2); details: read-out: % Cont @ 1 uM
T10 construct: purchased DiscoverX scanMAX Kinase panel
Procedure: as §1

LTK = biological target: T11, LTK (Homo sapiens, UniProt P29376); details: read-out: % Cont @ 1 uM
T11 construct: purchased DiscoverX scanMAX Kinase panel
Procedure: as §1

[2] = biological target: T12, ABL1(E255K)-phosphorylated (Homo sapiens, UniProt P00519, E255K); details: read-out: % Cont @ 1 uM
T12 construct: purchased DiscoverX
Procedure: as §1

EPHA4 = biological target: T13, EPHA4 (Homo sapiens, UniProt P54764); details: read-out: % Cont @ 1 uM
T13 construct: purchased DiscoverX scanMAX Kinase panel
Procedure: as §1

IRAK4 = biological target: T14, IRAK4 (Homo sapiens, UniProt Q9NWZ3)
T14 construct: purchased DiscoverX scanMAX Kinase panel
T14 sequence (Q9NWZ3 whole entry): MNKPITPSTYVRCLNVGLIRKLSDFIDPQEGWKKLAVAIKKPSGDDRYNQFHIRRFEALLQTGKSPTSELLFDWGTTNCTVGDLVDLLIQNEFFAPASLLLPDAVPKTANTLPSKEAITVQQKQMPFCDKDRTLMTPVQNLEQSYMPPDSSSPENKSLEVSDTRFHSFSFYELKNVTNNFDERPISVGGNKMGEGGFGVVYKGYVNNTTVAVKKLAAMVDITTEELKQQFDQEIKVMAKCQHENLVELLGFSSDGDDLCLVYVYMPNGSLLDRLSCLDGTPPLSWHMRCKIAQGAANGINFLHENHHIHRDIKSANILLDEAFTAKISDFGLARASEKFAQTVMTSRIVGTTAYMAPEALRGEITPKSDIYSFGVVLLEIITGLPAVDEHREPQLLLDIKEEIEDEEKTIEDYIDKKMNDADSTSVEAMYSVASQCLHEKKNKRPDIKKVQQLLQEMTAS
Procedure: as §1

EGFR(E746-A750del) = biological target: T15, EGFR(E746-A750del) (Homo sapiens, UniProt P00533, DEL746-750)
T15 construct: purchased DiscoverX scanMAX Kinase panel
Procedure: as §1

MST3 = biological target: T16, MST3 (Homo sapiens, UniProt Q9Y6E0)
T16 construct: purchased DiscoverX scanMAX Kinase panel
Procedure: as §1

[3] = biological target: T17, ABL1(M351T)-phosphorylated (Homo sapiens, UniProt P00519, M351T); details: read-out: % Cont @ 1 uM
T17 construct: purchased DiscoverX
Procedure: as §1

ABL1-phosphorylated = biological target: T18, ABL1-phosphorylated (Homo sapiens, UniProt P00519); details: read-out: % Cont @ 1 uM
T18 construct: purchased DiscoverX scanMAX Kinase panel
Procedure: as §1

FLT3(ITD, F691L) = tested on: FLT3(ITD, F691L)
Procedure: as §1

MINK = biological target: T19, MINK (Homo sapiens, UniProt Q8N4C8); details: read-out: % Cont @ 1 uM
T19 construct: purchased DiscoverX scanMAX Kinase panel
Procedure: as §1

MERTK = biological target: T20, MERTK (Homo sapiens, UniProt Q12866); details: read-out: % Cont @ 1 uM
T20 construct: purchased DiscoverX scanMAX Kinase panel
Procedure: as §1

DLK = biological target: T21, DLK (Homo sapiens, UniProt Q12852)
T21 construct: purchased DiscoverX scanMAX Kinase panel
Procedure: as §1

EPHB1 = biological target: T22, EPHB1 (Homo sapiens, UniProt P54762); details: read-out: % Cont @ 1 uM
T22 construct: purchased DiscoverX scanMAX Kinase panel
Procedure: as §1

FLT3 = biological target: T23, FLT3 (Homo sapiens, UniProt P36888); details: read-out: % Cont @ 1 uM
T23 construct: purchased DiscoverX scanMAX Kinase panel
Procedure: as §1

EPHA8 = biological target: T24, EPHA8 (Homo sapiens, UniProt P29322); details: read-out: % Cont @ 1 uM
T24 construct: purchased DiscoverX scanMAX Kinase panel
Procedure: as §1

MLK1 = biological target: T25, MLK1 (Homo sapiens, UniProt P80192); details: read-out: % Cont @ 1 uM
T25 construct: purchased DiscoverX scanMAX Kinase panel
Procedure: as §1

STK35 = biological target: T26, STK35 (Homo sapiens, UniProt Q8TDR2); details: read-out: % Cont @ 1 uM
T26 construct: purchased DiscoverX scanMAX Kinase panel
Procedure: as §1

ABL2 = biological target: T27, ABL2 (Homo sapiens, UniProt P42684); details: read-out: % Cont @ 1 uM
T27 construct: purchased DiscoverX scanMAX Kinase panel
Procedure: as §1

PAK3 = biological target: T28, PAK3 (Homo sapiens, UniProt O75914); details: read-out: % Cont @ 1 uM
T28 construct: purchased DiscoverX scanMAX Kinase panel
T28 sequence (O75914 whole entry): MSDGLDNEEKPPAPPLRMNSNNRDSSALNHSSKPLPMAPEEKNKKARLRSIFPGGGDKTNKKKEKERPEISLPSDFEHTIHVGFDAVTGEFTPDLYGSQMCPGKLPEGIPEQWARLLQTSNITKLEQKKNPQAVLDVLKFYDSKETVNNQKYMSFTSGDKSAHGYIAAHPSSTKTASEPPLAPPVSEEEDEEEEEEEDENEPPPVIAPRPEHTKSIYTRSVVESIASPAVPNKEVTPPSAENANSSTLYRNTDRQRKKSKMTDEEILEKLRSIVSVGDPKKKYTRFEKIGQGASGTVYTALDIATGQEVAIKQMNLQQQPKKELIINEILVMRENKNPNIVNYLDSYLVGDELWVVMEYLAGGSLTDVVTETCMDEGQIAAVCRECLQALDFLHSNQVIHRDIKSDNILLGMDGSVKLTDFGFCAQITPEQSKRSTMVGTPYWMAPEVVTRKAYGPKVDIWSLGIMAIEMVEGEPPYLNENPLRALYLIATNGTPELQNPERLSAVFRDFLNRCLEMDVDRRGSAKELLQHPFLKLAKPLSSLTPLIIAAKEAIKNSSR
Procedure: as §1

FLT3(R834Q) = biological target: T29, FLT3(R834Q) (Homo sapiens, UniProt P36888, R834Q); details: read-out: % Cont @ 1 uM
T29 construct: purchased DiscoverX scanMAX Kinase panel
Procedure: as §1

[4] = biological target: T30, ABL1(F317L)-nonphosphorylated (Homo sapiens, UniProt P00519, F317L); details: read-out: % Cont @ 1 uM
T30 construct: purchased DiscoverX
Procedure: as §1

HCK = biological target: T31, HCK (Homo sapiens, UniProt P08631); details: read-out: % Cont @ 1 uM
T31 construct: purchased DiscoverX scanMAX Kinase panel
Procedure: as §1

YES = biological target: T32, YES (Homo sapiens, UniProt P07947); details: read-out: % Cont @ 1 uM
T32 construct: purchased DiscoverX scanMAX Kinase panel
Procedure: as §1

[5] = biological target: T33, ABL1(F317L)-phosphorylated (Homo sapiens, UniProt P00519, F317L); details: read-out: % Cont @ 1 uM
T33 construct: purchased DiscoverX
Procedure: as §1

CIT = biological target: T34, CIT (Homo sapiens, UniProt O14578)
T34 construct: purchased DiscoverX scanMAX Kinase panel
Procedure: as §1

PFCDPK1(P. falciparum) = biological target: T35, PFCDPK1(P. falciparum) (Plasmodium falciparum, UniProt P62344); details: read-out: % Cont @ 1 uM
T35 construct: purchased DiscoverX scanMAX Kinase panel
Procedure: as §1

BRAF(V600E) = biological target: T36, BRAF(V600E) (Homo sapiens, UniProt P15056, V600E); details: read-out: % Cont @ 1 uM
T36 construct: purchased DiscoverX scanMAX Kinase panel
T36 sequence (P15056 whole entry V600E): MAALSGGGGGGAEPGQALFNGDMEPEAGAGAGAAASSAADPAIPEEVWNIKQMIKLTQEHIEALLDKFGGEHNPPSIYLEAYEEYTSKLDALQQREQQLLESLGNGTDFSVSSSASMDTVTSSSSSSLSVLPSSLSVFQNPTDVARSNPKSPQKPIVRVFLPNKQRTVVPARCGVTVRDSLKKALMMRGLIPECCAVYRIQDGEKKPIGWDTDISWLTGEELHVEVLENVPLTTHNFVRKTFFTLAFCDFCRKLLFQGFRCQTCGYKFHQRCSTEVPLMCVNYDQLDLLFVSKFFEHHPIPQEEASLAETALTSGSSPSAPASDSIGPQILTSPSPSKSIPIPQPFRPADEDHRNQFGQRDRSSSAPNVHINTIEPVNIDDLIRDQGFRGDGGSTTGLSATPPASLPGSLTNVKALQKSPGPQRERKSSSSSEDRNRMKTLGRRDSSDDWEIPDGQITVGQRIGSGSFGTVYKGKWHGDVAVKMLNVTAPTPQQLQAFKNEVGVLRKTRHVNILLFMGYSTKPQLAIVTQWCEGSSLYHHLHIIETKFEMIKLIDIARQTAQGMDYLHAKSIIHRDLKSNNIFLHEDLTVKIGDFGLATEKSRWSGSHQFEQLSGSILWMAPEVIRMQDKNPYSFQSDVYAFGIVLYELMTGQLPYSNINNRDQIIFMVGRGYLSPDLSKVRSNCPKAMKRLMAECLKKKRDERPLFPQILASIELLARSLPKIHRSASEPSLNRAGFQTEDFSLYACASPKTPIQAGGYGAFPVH
Procedure: as §1

RET(V804L) = biological target: T37, RET(V804L) (Homo sapiens, UniProt P07949, V804L); details: read-out: % Cont @ 1 uM
T37 construct: purchased DiscoverX scanMAX Kinase panel
Procedure: as §1

T1 sequence (O14976 whole entry): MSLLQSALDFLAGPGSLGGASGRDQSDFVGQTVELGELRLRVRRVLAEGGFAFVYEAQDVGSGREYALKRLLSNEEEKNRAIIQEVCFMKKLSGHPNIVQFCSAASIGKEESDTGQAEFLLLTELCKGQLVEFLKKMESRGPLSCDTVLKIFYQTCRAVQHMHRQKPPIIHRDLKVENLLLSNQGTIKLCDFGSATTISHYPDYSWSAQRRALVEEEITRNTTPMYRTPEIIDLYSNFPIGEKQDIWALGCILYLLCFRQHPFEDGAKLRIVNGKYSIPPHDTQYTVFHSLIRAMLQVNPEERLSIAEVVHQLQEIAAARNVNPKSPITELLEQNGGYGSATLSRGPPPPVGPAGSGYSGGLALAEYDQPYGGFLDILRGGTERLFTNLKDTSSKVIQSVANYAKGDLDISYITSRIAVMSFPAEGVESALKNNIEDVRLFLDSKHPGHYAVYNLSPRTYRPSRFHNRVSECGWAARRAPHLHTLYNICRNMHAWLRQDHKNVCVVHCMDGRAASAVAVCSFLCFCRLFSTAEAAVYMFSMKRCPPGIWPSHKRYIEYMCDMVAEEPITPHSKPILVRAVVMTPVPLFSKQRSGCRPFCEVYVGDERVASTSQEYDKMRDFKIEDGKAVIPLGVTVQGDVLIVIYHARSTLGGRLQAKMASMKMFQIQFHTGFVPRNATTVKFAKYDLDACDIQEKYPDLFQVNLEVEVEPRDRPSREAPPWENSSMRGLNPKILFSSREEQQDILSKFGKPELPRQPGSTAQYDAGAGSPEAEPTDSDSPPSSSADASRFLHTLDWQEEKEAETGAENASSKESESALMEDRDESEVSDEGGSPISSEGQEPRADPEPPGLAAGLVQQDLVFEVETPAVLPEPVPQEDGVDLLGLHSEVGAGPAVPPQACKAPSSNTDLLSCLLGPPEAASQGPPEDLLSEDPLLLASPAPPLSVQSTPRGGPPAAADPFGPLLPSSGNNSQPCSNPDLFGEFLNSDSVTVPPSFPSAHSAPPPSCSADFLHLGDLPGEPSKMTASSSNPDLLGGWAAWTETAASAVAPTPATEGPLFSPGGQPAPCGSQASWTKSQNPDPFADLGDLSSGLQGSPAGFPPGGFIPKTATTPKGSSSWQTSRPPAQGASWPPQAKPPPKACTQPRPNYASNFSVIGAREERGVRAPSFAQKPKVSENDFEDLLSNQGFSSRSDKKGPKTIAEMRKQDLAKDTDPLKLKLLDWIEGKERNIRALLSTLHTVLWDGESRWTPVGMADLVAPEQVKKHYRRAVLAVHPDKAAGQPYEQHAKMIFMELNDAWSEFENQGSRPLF

Compound `Cc1cn(-c2cc(NC(=O)c3cc(C#Cc4cnc5c(Nc6cnn(C)c6)cccn45)c(C)cc3F)cc(C(F)(F)F)c2)cn1` [Example 4, 2-fluoro-4-methyl-N-(3-(4-methyl-1H-imidazol-1-yl)-5-(trifluoromethyl)phenyl)-5-((8-((1-methyl-1H-pyrazol-4-yl)amino)imidazo[1,2-a]pyridin-3-yl)ethynyl)benzamide] has a remaining binding at 1 µM (GAK) of 80%, a remaining binding at 1 µM (KIT(V559D)) of 0.25% and a remaining binding at 1 µM (TAOK1) of 96%. It also gave a remaining binding at 1 µM (TNNI3K) of 41%, a percent of control binding at 1 µM (IKK-beta) of 56% and a remaining binding at 1 µM (NEK4) of 90%. For the same compound, the remaining binding at 1 µM (KIT(V559D, T670I)) was 12%, the remaining binding at 1 µM (PDGFRB) was 0.05% and the remaining binding at 1 µM [1] was 2.8%. For the same compound, the remaining binding at 1 µM (ZAK) was 8.1%, the remaining binding at 1 µM (LTK) was 8.7% and the remaining binding at 1 µM [2] was 12%. For the same compound, the remaining binding at 1 µM (EPHA4) was 28%, the “% Cont @ 1 uM” value (IRAK4) was 89% and the “% Cont @ 1 uM” value (EGFR(E746-A750del)) was 56%. For the same compound, the “% Cont @ 1 uM” value (MST3) was 70%, the remaining binding at 1 µM [3] was 10% and the remaining binding at 1 µM (ABL1-phosphorylated) was 8.4%. The “% Cont @ 1 uM” value (FLT3(ITD, F691L)) was 37%, the percent of control binding at 1 µM (MINK) was 88% and the remaining binding at 1 µM (MERTK) was 3.3%. For the same compound, the “% Cont @ 1 uM” value (DLK) was 89%, the remaining binding at 1 µM (EPHB1) was 26% and the remaining binding at 1 µM (FLT3) was 1.9%. It also gave a remaining binding at 1 µM (EPHA8) of 1.6%, a percent of control binding at 1 µM (MLK1) of 76% and a remaining binding at 1 µM (STK35) of 94%. It also gave a remaining binding at 1 µM (ABL2) of 2.9%, a remaining binding at 1 µM (PAK3) of 10% and a remaining binding at 1 µM (FLT3(R834Q)) of 34%. For the same compound, the remaining binding at 1 µM [4] was 10%, the remaining binding at 1 µM (HCK) was 0.65% and the remaining binding at 1 µM (YES) was 10%. For the same compound, the remaining binding at 1 µM [5] was 1.2%, the “% Cont @ 1 uM” value (CIT) was 0.45% and the remaining binding at 1 µM (PFCDPK1(P. falciparum)) was 48%. The remaining binding at 1 µM (BRAF(V600E)) was 48% and the remaining binding at 1 µM (RET(V804L)) was 6%.

Work on `Cc1cn(-c2cc(NC(=O)c3cc(C#Cc4cnc5c(Nc6cnn(C)c6)cccn45)c(C)cc3F)cc(C(C)(C)C#N)c2)cn1` [Example 1, N-(3-(2-cyanopropane-2-yl)-5-(4-methyl-1H-imidazol-1-yl)phenyl)-2-fluoro-4-methyl-5-((8-((1-methyl-1H-pyrazol-4-yl)amino)imidazo[1,2-a]pyridin-3-yl)ethynyl)benzamide] yielded a remaining binding at 1 µM (GAK) of 25%, a remaining binding at 1 µM (KIT(V559D)) of 0% and a remaining binding at 1 µM (TAOK1) of 11%. For the same compound, the remaining binding at 1 µM (TNNI3K) was 1.8%, the percent of control binding at 1 µM (IKK-beta) was 26% and the remaining binding at 1 µM (NEK4) was 28%. For the same compound, the remaining binding at 1 µM (KIT(V559D, T670I)) was 1.2%, the remaining binding at 1 µM (PDGFRB) was 0% and the remaining binding at 1 µM [1] was 50%. For the same compound, the remaining binding at 1 µM (ZAK) was 1.5%, the remaining binding at 1 µM (LTK) was 3.4% and the remaining binding at 1 µM [2] was 0.9%. For the same compound, the remaining binding at 1 µM (EPHA4) was 26%, the “% Cont @ 1 uM” value (IRAK4) was 34% and the “% Cont @ 1 uM” value (EGFR(E746-A750del)) was 0%. The “% Cont @ 1 uM” value (MST3) was 20%, the remaining binding at 1 µM [3] was 0.25% and the remaining binding at 1 µM (ABL1-phosphorylated) was 0.45%. The “% Cont @ 1 uM” value (FLT3(ITD, F691L)) was 5.1%, the percent of control binding at 1 µM (MINK) was 2.4% and the remaining binding at 1 µM (MERTK) was 6.1%. The “% Cont @ 1 uM” value (DLK) was 5.9%, the remaining binding at 1 µM (EPHB1) was 17% and the remaining binding at 1 µM (FLT3) was 2%. It also gave a remaining binding at 1 µM (EPHA8) of 0.1%, a percent of control binding at 1 µM (MLK1) of 18% and a remaining binding at 1 µM (STK35) of 10%. For the same compound, the remaining binding at 1 µM (ABL2) was 0.4%, the remaining binding at 1 µM (PAK3) was 7.1% and the remaining binding at 1 µM (FLT3(R834Q)) was 0.9%. It also gave a remaining binding at 1 µM [4] of 2.7%, a remaining binding at 1 µM (HCK) of 0.2% and a remaining binding at 1 µM (YES) of 2.5%. The remaining binding at 1 µM [5] was 0%, the “% Cont @ 1 uM” value (CIT) was 0.1% and the remaining binding at 1 µM (PFCDPK1(P. falciparum)) was 12%. It also gave a remaining binding at 1 µM (BRAF(V600E)) of 15% and a remaining binding at 1 µM (RET(V804L)) of 0.6%.

From patent US12673945B2, “3-((8-((1H-pyrazol-4-yl)amino)imidazo[1,2-a]pyridin-3-yl)ethinyl)-n-phenylbenzamide derivative, method for preparing same, and pharmaceutical composition containing same as active ingredient for prevention or treatment of cancer” (DAEGU-GYEONGBUK MEDICAL INNOVATION FOUNDATION, priority 2020, dated 2026)
